From PMC10460844, “Real‐Time Monitoring of Multitarget Antimicrobial Mechanisms of Peptoids Using Label‐Free Imaging with Optical Diffraction Tomography” (Advanced Science, 2023)
Values after ≈ are worked out from the molar mass of the structure shown. Counter-ions that a name gives are not always drawn. Like-named read-outs stand apart in the source and are kept apart here. Square brackets hold non-standard residues; d marks the D form. Peptide text beside a SMILES is read from it. Gly(N(CH2)2(3-indolyl)) = O=C(O)CNCCc1c[nH]c2ccccc12; Nspe = C[C@H](NCC(=O)O)c1ccccc1; Nphe = O=C(O)CNCc1ccccc1; Nlys = NCCCCNCC(=O)O

Assays:
[1] = test system: S. aureus ATCC 25923; assay type: cell-based, Staphylococcus aureus
Protocol: (§1) The antibacterial activity of the peptoids was evaluated against gram‐positive (Staphylococcus aureus, ATCC 25 923) and gram‐negative (Escherichia coli, ATCC 25 922) bacteria. […] The MIC of each peptoid was determined using a broth dilution assay. For each assay, the primary culture of either S. aureus or E. coli was grown overnight in cation‐adjusted Mueller Hinton broth 2 (MHB2) media at 37 °C with shaking. A secondary culture was prepared the next day, grown for 3–4 h, and then diluted in MHB2 media with a final concentration of 0.001% acetic acid and 0.02% bovine serum albumin to obtain a calculated optical density (OD) of 0.001. This corresponded to ≈2–5 × 10^5 colony‐forming units (CFU mL^−1) of bacteria. Using 96‐well polypropylene plates (Eppendorf, Hamburg, Germany), 100 µL of 2–5 × 10^5 CFU mL^−1 bacteria were added in triplicate for each peptoid. Each peptoid was assayed at six different concentrations in two‐fold serial dilutions. The maximum peptoid concentration was 25 µM. […] The MIC value determination was performed in triplicate. The MIC was defined as the lowest peptoid concentration that prevented turbidity during visual inspection.

[2] = test system: S. typhimurium SL 1344; assay type: cell-based; conditions: SL 1344
[3] = test system: E. coli ML-35 cells; experiment: ONPG hydrolysis assay (inner membrane); assay type: cell-based; conditions: 1.5 mM ONPG, 10 mM sodium phosphate pH 7.4, absorbance 405 nm
Protocol: The permeability of the inner membrane was determined using E. coli ML-35 cells […]
The intact bacterial inner membrane is non-permeable to o-nitrophenyl-β-D-galactopyranoside (OPNG), a chromogenic substrate of the β-galactosidase.
Following damage to the inner membrane, OPNG enters the cells and is metabolized by β-galactosidase creating a chromogenic […]. E. coli cells were washed in 10 mM sodium phosphate (pH 7.4) containing 100 mM NaCl and resuspended in the same buffer at a final concentration of OD600 = 0.5 containing 1.5 mM ONPG. The hydrolysis of ONPG and generation of o-nitrophenol over time were monitored as absorbance change at 405 nm following the addition of peptoids. […]

[4] = test system: rat erythrocytes; experiment: Hemolysis assay; assay type: cell-based
How it was run: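 Washed Sprague-Dawley rat erythrocytes (10% suspension in PBS pH 7.4) mixed with peptoids (0–100 µM), 60 min at 37 °C; supernatant A540 expressed as % of 1% Triton X-100 lysis. HC10/HC50 are concentrations giving 10%/50% hemolysis; Hmax is hemolysis at 100 µM.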

[5] = Analytical reversed-phase HPLC elution (hydrophobicity); assay type: physicochemical; conditions: analytical RP-HPLC, 1 mL/min, UV 220 nm; for HPLC elution (%ACN): Table 1, SunFire C18 […] 250 mm, water/ACN + 0.1% TFA, 5% B 2 min then linear to 100% B over 30 min, used as measure of hydrophobicity
How it was run: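 Analytical reversed-phase HPLC on a C18 column (4.6 × 250 mm, 5 μm) at 1 mL/min, water/acetonitrile each with 0.1% TFA. Held at 5% B for 2 min, then linear to 100% B over 30 min and held 5 min, with UV detection at 220 nm; retention time (tR) serves as hydrophobicity measure.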

[6] = test system: E. coli ATCC 25922; experiment: NPN uptake assay (outer membrane); assay type: cell-based; conditions: E. coli ATCC 25922, 5 mM HEPES pH 7.2, 10 µM NPN, fluorescence
Protocol: 14. In vitro biological assays […]
The ability of peptoids to increase the permeability of the outer membrane of Gram-negative bacteria was determined by measuring the incorporation of the NPN fluorescent dye into the outer membrane of E. coli ATCC 25922. Bacterial cells were suspended to a final concentration of OD600 = 0.05 in 5 mM HEPES buffer, pH 7.2, containing 5 mM KCN. Then […]
200 μL NPN dye was added to wells of a 96 well plate to produce a final concentration of 10 μM, and the background fluorescence was recorded (λex = 350 nm, λem = 420 nm). Aliquots of peptoids were added to the well, and fluorescence was recorded as a function of time until there was no further increase in fluorescence. Increases of the permeability of the outer membrane after the addition of peptoids was reflected by increased fluorescence values as a result of NPN incorporation into the membrane. […]

[7] = test system: E. faecium KCTC 13225; assay type: cell-based; conditions: KCTC 13225
[8] = test system: E. coli ATCC 25922; assay type: cell-based, Escherichia coli
Protocol: as §1

[9] = test system: E. faecalis KCTC 3511; assay type: cell-based; conditions: KCTC 3511
[10] = Table S2, broth dilution, MHB2, 37 °C 24 h, max 25 µM, mean of triplicate
[11] = Table S3, counter-ion exchange series (TFA, HCl, AcOH salts), mean of triplicate

C[C@@H](c1ccccc1)N(CC(N)=O)C(=O)CN(C(=O)CN(CCCCN)C(=O)CN(C(=O)CN(C(=O)CN(CCCCN)C(=O)CN(C(=O)CN(C(=O)CN(CCCCN)C(=O)CN(CCc1c[nH]c2ccccc12)C(=O)CN(CCc1c[nH]c2ccccc12)C(=O)CNCCCCN)[C@@H](C)c1ccccc1)[C@@H](C)c1ccccc1)[C@@H](C)c1ccccc1)[C@@H](C)c1ccccc1)[C@@H](C)c1ccccc1 [peptoid 14]
MIC S. aureus ATCC25923 ([1]; ATCC 25923): 1.6 µM (≈ 3.04 µg/mL) | MIC S. aureus ATCC25923 [1, 10]: < 0.8 µM | MIC S. typhimurium SL 1344 [2]: 12.5 µM (≈ 23.7 µg/mL) | inner membrane disruption (ONPG hydrolysis) [3]: strongly disrupted | H max (100 µM) [4]: 90.0 ± 7.3% | Hmax (100 µM) [4]: 112.9±2.1% | HC10 ([4]; red cells of rat): 12.5 µM | HC50 ([4]; red cells of rat): 21.1 µM | HPLC elution (%ACN) [5]: 55.6 %ACN | outer membrane disruption (NPN uptake) [6]: strongly disrupted | MIC E. faecium KCTC 13225 [7]: <0.8 µM | MIC E. coli ATCC25922 [8, 10]: 3.1 µM (≈ 5.88 µg/mL) | MIC E. coli ATCC25922 [8, 11]: 3.1 µM | MIC E. faecalis KCTC 3511 [9]: 1.6 µM (≈ 3.04 µg/mL)

C[C@@H](c1ccccc1)N(CC(=O)N(CCCCN)CC(=O)N(CC(=O)N(CC(N)=O)Cc1ccccc1)Cc1ccccc1)C(=O)CN(CCCCN)C(=O)CN(CCCCN)C(=O)CN(C(=O)CN(C(=O)CN(CCCCN)C(=O)CN(C(=O)CN(C(=O)CNCCCCN)[C@@H](C)c1ccccc1)[C@@H](C)c1ccccc1)[C@@H](C)c1ccccc1)[C@@H](C)c1ccccc1 [peptoid 45] (H-[Nlys][Nspe][Nspe][Nlys][Nspe][Nspe][Nlys][Nlys][Nspe][Nlys][Nphe][Nphe]-NH2)
MIC S. aureus ATCC25923 [1, 10]: 25 µM (≈ 44 µg/mL) | H max (100 µM) [4]: 4.5 ± 0.2% | Hmax (100 µM) [4]: 4.5±0.2% | HC10 ([4]; pH 7.4): > 100 µM | HC50 ([4]; pH 7.4): > 100 µM | HPLC elution ([5]; Table S1, SunFire C18, water/ACN + 0.1% TFA, 5 to 100% B linear over 30 min, approximate comparison of hydrophobicity): 47.3 % MeCN | MIC E. coli ATCC25922 [8, 10]: > 25 µM

C[C@@H](c1ccccc1)N(CC(N)=O)C(=O)CN(C(=O)CN(CCCCN)C(=O)CN(C(=O)CN(C(=O)CN(CCCCN)C(=O)CN(C(=O)CN(C(=O)CN(CCCCN)C(=O)CN(CCc1c[nH]c2ccccc12)C(=O)CN(CCc1c[nH]c2ccccc12)C(=O)CNCCCCN)[C@@H](C)c1ccccc1)[C@@H](C)c1ccccc1)[C@@H](C)c1ccccc1)[C@@H](C)c1ccccc1)[C@@H](C)c1ccccc1 [14-HCl]
MIC S. aureus ATCC25923 ([1]; ATCC 25923): 3.1 µM | Hmax (100 µM) [4]: 75.3±5.0% | HC10 ([4]; red cells of rat): 19.2 µM | HC50 ([4]; red cells of rat): 68.2 µM | MIC E. coli ATCC25922 ([8]; ATCC 25922): 3.1 µM

C[C@@H](c1ccccc1)N(CC(N)=O)C(=O)CN(C(=O)CN(CCCCN)C(=O)CN(C(=O)CN(C(=O)CN(CCCCN)C(=O)CN(C(=O)CN(C(=O)CN(CCCCN)C(=O)CN(CCc1c[nH]c2ccccc12)C(=O)CN(CCc1c[nH]c2ccccc12)C(=O)CNCCCCN)[C@@H](C)c1ccccc1)[C@@H](C)c1ccccc1)[C@@H](C)c1ccccc1)[C@@H](C)c1ccccc1)[C@@H](C)c1ccccc1 [14-AcOH]
MIC S. aureus ATCC25923 ([1]; ATCC 25923): 1.6 µM (≈ 3.04 µg/mL) | Hmax (100 µM) [4]: 100.7±17.2% | HC10 ([4]; red cells of rat): 14.9 µM | HC50 ([4]; red cells of rat): 51.8 µM | MIC E. coli ATCC25922 ([8]; ATCC 25922): 3.1 µM (≈ 5.88 µg/mL)

C[C@@H](c1ccccc1)N(CC(N)=O)C(=O)CN(C(=O)CN(CCCCN)C(=O)CN(C(=O)CN(C(=O)CN(CCCCN)C(=O)CN(C(=O)CN(C(=O)CN(CCCCN)C(=O)CN(CCc1c[nH]c2ccccc12)C(=O)CN(C(=O)CNCCCCN)[C@@H](C)c1ccccc1)[C@@H](C)c1ccccc1)[C@@H](C)c1ccccc1)[C@@H](C)c1ccccc1)[C@@H](C)c1ccccc1)[C@@H](C)c1ccccc1 [peptoid 10]
MIC S. aureus ATCC25923 ([1]; ATCC 25923): 0.8 µM (≈ 1.49 µg/mL) | MIC S. aureus ATCC25923 [1, 10]: 1.6 µM (≈ 2.97 µg/mL) | MIC S. typhimurium SL 1344 [2]: 12.5 µM (≈ 23.2 µg/mL) | inner membrane disruption (ONPG hydrolysis) [3]: strongly disrupted | H max (100 µM) [4]: 108.1 ± 1.7% | Hmax (100 µM) [4]: 101.4±5.1% | HC10 ([4]; pH 7.4): 6.6 µM | HC50 ([4]; pH 7.4): 17.0 µM | HC10 ([4]; red cells of rat): 6.9 µM | HC50 ([4]; red cells of rat): 25.8 µM | HPLC elution (%ACN) [5]: 54.9 %ACN | outer membrane disruption (NPN uptake) [6]: strongly disrupted | MIC E. faecium KCTC 13225 [7]: 12.5 µM (≈ 23.2 µg/mL) | MIC E. coli ATCC25922 [8, 10]: 3.1 µM (≈ 5.76 µg/mL) | MIC E. coli ATCC25922 [8, 11]: 3.1 µM | MIC E. faecalis KCTC 3511 [9]: 12.5 µM (≈ 23.2 µg/mL)

C[C@@H](c1ccccc1)N(CC(=O)N(CCCCN)CC(=O)N(CC(=O)N(CC(=O)N(CCCCN)CC(=O)N(CC(=O)N(CC(=O)N(CCCCN)CC(N)=O)[C@@H](C)c1ccccc1)[C@@H](C)c1ccccc1)[C@@H](C)c1ccccc1)[C@@H](C)c1ccccc1)C(=O)CN(C(=O)CN(CCCCN)C(=O)CN(CCc1c[nH]c2ccccc12)C(=O)CNCCc1c[nH]c2ccccc12)[C@@H](C)c1ccccc1 [37-AcOH] (H-[Gly(N(CH2)2(3-indolyl))][Gly(N(CH2)2(3-indolyl))][Nlys][Nspe][Nspe][Nlys][Nspe][Nspe][Nlys][Nspe][Nspe][Nlys]-NH2)
MIC S. aureus ATCC25923 ([1]; ATCC 25923): 1.6 µM (≈ 3.04 µg/mL) | Hmax (100 µM) [4]: 98.9±8.0% | HC10 ([4]; red cells of rat): 12.5 µM | HC50 ([4]; red cells of rat): 26.0 µM | MIC E. coli ATCC25922 ([8]; ATCC 25922): 6.3 µM (≈ 12 µg/mL)

C[C@@H](c1ccccc1)N(CC(N)=O)C(=O)CN(C(=O)CN(CCCCN)C(=O)CN(C(=O)CN(CCc1c[nH]c2ccccc12)C(=O)CN(CCCCN)C(=O)CN(CCc1c[nH]c2ccccc12)C(=O)CN(C(=O)CN(CCCCN)C(=O)CN(C(=O)CN(C(=O)CNCCCCN)[C@@H](C)c1ccccc1)[C@@H](C)c1ccccc1)[C@@H](C)c1ccccc1)[C@@H](C)c1ccccc1)[C@@H](C)c1ccccc1 [15-AcOH]
MIC S. aureus ATCC25923 ([1]; ATCC 25923): 3.1 µM (≈ 5.88 µg/mL) | Hmax (100 µM) [4]: 34.1±1.1% | HC10 ([4]; red cells of rat): 39.2 µM | HC50 ([4]; red cells of rat): > 100 µM | MIC E. coli ATCC25922 ([8]; ATCC 25922): 6.3 µM (≈ 12 µg/mL)
